From ChEMBL document CHEMBL4152332, “Discovery and synthesis of novel magnolol derivatives with potent anticancer activity in non-small cell lung cancer” (Eur J Med Chem, 2018)

How the values were obtained:
Mus musculus [1] = assay: Toxicity in Balb/c mouse implanted with mouse C26 cells assessed as change in body weight at 100 mg/kg, po qd treated for 10 days and measured every 2 days (RVB = 16.4%); type: organism-based; settings: in vivo
HCC827 = assay: Antiproliferative activity against human HCC827 cells after 72 hrs by MTT assay; type: functional, cell-based; settings: HCC827, 72 h
NCI-H1975 [2] = assay: Antiproliferative activity against human NCI-H1975 cells after 72 hrs by MTT assay; type: functional, cell-based; settings: NCI-H1975, 72 h
NCI-H460 = assay: Antiproliferative activity against human H460 cells after 72 hrs by MTT assay; type: functional, cell-based; settings: NCI-H460, 72 h
[3] = Antiproliferative activity against human SPC-A1 cells after 72 hrs by MTT assay; type: functional, cell-based; settings: SPCA1, 72 h
NCI-H1650 = assay: Antiproliferative activity against human NCI-H1650 cells after 72 hrs by MTT assay; type: functional, cell-based; settings: NCI-H1650, 72 h
PC-9 = assay: Antiproliferative activity against human PC9 cells after 72 hrs by MTT assay; type: functional, cell-based; settings: PC-9, 72 h
NCI-H441 = assay: Antiproliferative activity against human H441 cells after 72 hrs by MTT assay; type: functional, cell-based; settings: NCI-H441, 72 h
NCI-H358 = assay: Antiproliferative activity against human NCI-H358 cells after 72 hrs by MTT assay; type: functional, cell-based; settings: NCI-H358, 72 h
[4] = Apparent aqueous solubility of the compound by HPLC analysis; type: physicochemical; settings: aqueous solution
NCI-H1975 [5] = assay: Cell cycle arrest in human NCI-H1975 cells assessed as accumulation at G0/G1 phase at 40 uM after 24 hrs by propidium iodide staining-based flow cytometric analysis (reference value: 56.11%); type: functional
NCI-H1975 [6] = assay: Cell cycle arrest in human NCI-H1975 cells assessed as accumulation at S phase at 40 uM after 24 hrs by propidium iodide staining-based flow cytometric analysis (reference value: 22.93%); type: functional
NCI-H1975 [7] = assay: Cell cycle arrest in human NCI-H1975 cells assessed as accumulation at G2/M phase at 40 uM after 24 hrs by propidium iodide staining-based flow cytometric analysis (reference value: 20.11%); type: functional
NCI-H1975 [8] = assay: Induction of apoptosis in human NCI-H1975 cells assessed as early apoptotic cells at 40 uM after 48 hrs by annexin V/FITC-propidium iodide staining-based flow cytometric method ( Rvb = 6.09%); type: functional
NCI-H1975 [9] = assay: Induction of apoptosis in human NCI-H1975 cells assessed as late apoptotic cells at 40 uM after 48 hrs by annexin V/FITC-propidium iodide staining-based flow cytometric method ( Rvb = 10.4%); type: functional
NCI-H1975 [10] = assay: Induction of apoptosis in human NCI-H1975 cells assessed as necrotic cells at 40 uM after 48 hrs by annexin V/FITC-propidium iodide staining-based flow cytometric method ( Rvb = 1.01%); type: functional
NCI-H1975 [11] = assay: Induction of apoptosis in human NCI-H1975 cells assessed as viable cells at 40 uM after 48 hrs by annexin V/FITC-propidium iodide staining-based flow cytometric method ( Rvb = 82.5%); type: functional; settings: NCI-H1975, 48 h, read-out: Activity
[12] = Antitumor activity against mouse C26 cells implanted in Balb/c mouse assessed as tumor growth inhibition at 100 mg/kg, po qd and measured every 2 days relative to control; type: functional; settings: 48 h, read-out: TGI
Mus musculus [13] = assay: Toxicity in Balb/c mouse xenografted with human NCI-H1975 cells assessed as change in body weight at 100 mg/kg, po qd treated for 18 days and measured every 2 days after compound dosing ( Rvb = 2.89%); type: organism-based; settings: in vivo
Mus musculus [14] = assay: Toxicity in Balb/c mouse xenografted with human NCI-H1975 cells assessed as change in body weight at 20 mg/kg, iv treated every 2 days for 9 days and measured every 2 days after compound dosing ( Rvb = 2.89%); type: organism-based; settings: in vivo
Mus musculus [15] = assay: Toxicity in Balb/c mouse xenografted with human NCI-H1975 cells assessed as mouse death at 100 mg/kg, po qd treated for 18 days and measured every 2 days after compound dosing; type: organism-based; settings: in vivo
Mus musculus [16] = assay: Toxicity in Balb/c mouse xenografted with human NCI-H1975 cells assessed as mouse death at 20 mg/kg, iv treated every 2 days for 9 days and measured every 2 days after compound dosing; type: organism-based; settings: in vivo
NCI-H1975 [17] = assay: Antitumor activity against human NCI-H1975 cells xenografted in Balb/c mouse assessed as change in tumor mass at 100 mg/kg, po qd treated for 18 days and measured every 2 days after compound dosing relative to control; type: functional
NCI-H1975 [18] = assay: Antitumor activity against human NCI-H1975 cells xenografted in Balb/c mouse assessed as change in tumor mass at 20 mg/kg, iv treated every 2 days for 9 days and measured every 2 days after compound dosing relative to control; type: functional
Mus musculus [19] = assay: Toxicity in Balb/c mouse implanted with mouse C26 cells assessed as mouse death at 100 mg/kg, po qd treated for 10 days; type: organism-based; settings: in vivo, 240 h

SMILES: C=CCc1ccc(O)c(-c2ccc(O)c(CC=C)c2)c1 [HONOKIOL]
- Activity (Mus musculus [1]): 6.92%
- IC50 (HCC827): 33.9 µM
- IC50 (NCI-H1975 [2]): 30.2 µM
- IC50 (NCI-H460): 38.5 µM
- IC50 [3]: 39 µM
- IC50 (NCI-H1650): 37.4 µM
- IC50 (PC-9): 36.7 µM
- IC50 (NCI-H441): 33.3 µM
- IC50 (NCI-H358): 31.6 µM
- solubility [4]: < 10 µg/mL
- Activity (NCI-H1975 [5]): 67.42%
- Activity (NCI-H1975 [6]): 6.54%
- Activity (NCI-H1975 [7]): 18.55%
- Activity (NCI-H1975 [8]): 43.8%
- Activity (NCI-H1975 [9]): 7.97%
- Activity (NCI-H1975 [10]): 0.87%
- viability at 40 µM (NCI-H1975 [11]): 47.4%
- inhibition in vivo at 100 mg/kg [12]: 16.7%
- Activity (Mus musculus [13]): 1.38%
- Activity (Mus musculus [14]): 6.1%
- Activity (Mus musculus [15]): Non-Toxic
- Activity (Mus musculus [16]): Non-Toxic
- Activity (NCI-H1975 [17]): 11.8%
- Activity (NCI-H1975 [18]): 73%
- Activity (Mus musculus [19]): Non-Toxic
